Source: patent US12351574B2, “Selective ligands for modulation of GIRK channels” (Northeastern University, priority 2018, dated 2025)

Legend:
[1] = system: BLA neurons (GIRK currents); assay: whole-cell patch-clamp in acute brain slices, basolateral amygdala (BLA) neurons; format: cell-based, rat; settings: for current response of BLA neurons (in words): −50 mV
Procedure: Electrophysiological recordings from brain slices containing basolateral amygdala (BLA) neurons: Electrophysiology was performed using 150-200 g male Sprague-Dawley rats (Harlan/Envigo, Indianapolis, IN). Rats were group housed in plastic cages in standard housing conditions with ad libitum access to food and water with 12:12 light/dark cycle (lights on at 07:00 h). All experiments were conducted in accordance with the Guide for the Care and Use of Laboratory Animals (Institute for Laboratory Animal Research, The National Academies Press) and the guidelines of the IUPUI Institutional Animal Care and Use Committee. Rats were anesthetized with isoflurane and immediately decapitated. Brains were then rapidly removed, placed in ice-cold oxygenated artificial cerebrospinal fluid solution (ACSF) and coronal slices ([…]) were prepared containing the amygdala. Slices were incubated at 31° C. for 30 min and then returned to room temperature until recording. [ACSF solution in mM: 130 NaCl; 3.5 KCl; 1.1 KH2PO4; 1.3 MgCl2; 2.5 CaCl2; 30 NaHCO3; 10 glucose, 315 mOsm, 7.4 pH]. Cells were identified for recording at 40× magnification using Scientifica Slicescope microscope under DIC illumination (Scientifica, Uckfield, UK). ACSF was warmed to 30° C. and perfused at a rate of 2-3 ml/min during recordings. Compounds were added to ACSF at desired concentrations. Whole-cell patch-clamp recordings were obtained using standard techniques. Borosilicate glass electrodes (WPI, Sarasota, FL) (resistance 3-6 MΩ) were prepared and used for both recording and baclofen application. [Recording internal solution in mM: 140 K-gluconate; 2 KCl; 3 MgCl2; 10 HEPES; 5 Phosphocreatinine; 2 K-ATP; 0.2 Na-GTP, 290 mOsm, 7.4 pH]. In voltage-clamp mode, the cell was adjusted to −50 mV at the beginning of all experiments and 5 min stable baseline was established before treatment. Picospritzer II (Parker Hannifin, Hollis, NH) was utilized for local application of 100 μM GABA-B agonist baclofen in ACSF to activate GIRKs. Baseline and baclofen-induced currents were averaged from three responses per cell and analyzed using ClampFit software (Molecular Devices, San Jose, CA). […] Several control cells were subjected to baclofen at 2 min intervals for 30 min and consistent responses were observed, thus ruling out time-dependent effects.
The inventors employed whole-cell patch-clamp recording in acute brain slices to examine the effect of GAT1508. The inventors utilized brain slices that included the basolateral amygdala (BLA), a limbic structure that has been extensively described to coordinate the acquisition and expression of fear memories. […] Next, the inventors examined the response of BLA neurons to baclofen, a GABAB-receptor agonist that induces GIRK-mediated potassium currents. […]

elevated plus maze (EPM) = format: in vivo, rat; settings: 30 mg/kg; vehicle group 30.6±4.4; trend
Procedure: Elevated plus maze (EPM): The EPM, as described previously was performed in a black Plexiglas apparatus (Hamilton Kinder, San Diego, CA) that consists of two open arms and two closed arms each 50.17 cm long and 10.8 cm wide. The closed arms have walls that are 40.01 cm high. The entire apparatus is elevated 100 cm above the ground on a square aluminum base. For a testing period of 5 min, anxiety is estimated by the amount of time rats spend in the closed versus open arms. Test sessions were video recorded by ceiling mounted cameras.

[2] = molecular target: human ERG (hERG) channels (Homo sapiens, UniProt Q12809); design: expressed in transfected cells; host or cells: Xenopus oocytes; settings: published; cited from earlier work
Sequence of human ERG (hERG) channels (Q12809 whole entry): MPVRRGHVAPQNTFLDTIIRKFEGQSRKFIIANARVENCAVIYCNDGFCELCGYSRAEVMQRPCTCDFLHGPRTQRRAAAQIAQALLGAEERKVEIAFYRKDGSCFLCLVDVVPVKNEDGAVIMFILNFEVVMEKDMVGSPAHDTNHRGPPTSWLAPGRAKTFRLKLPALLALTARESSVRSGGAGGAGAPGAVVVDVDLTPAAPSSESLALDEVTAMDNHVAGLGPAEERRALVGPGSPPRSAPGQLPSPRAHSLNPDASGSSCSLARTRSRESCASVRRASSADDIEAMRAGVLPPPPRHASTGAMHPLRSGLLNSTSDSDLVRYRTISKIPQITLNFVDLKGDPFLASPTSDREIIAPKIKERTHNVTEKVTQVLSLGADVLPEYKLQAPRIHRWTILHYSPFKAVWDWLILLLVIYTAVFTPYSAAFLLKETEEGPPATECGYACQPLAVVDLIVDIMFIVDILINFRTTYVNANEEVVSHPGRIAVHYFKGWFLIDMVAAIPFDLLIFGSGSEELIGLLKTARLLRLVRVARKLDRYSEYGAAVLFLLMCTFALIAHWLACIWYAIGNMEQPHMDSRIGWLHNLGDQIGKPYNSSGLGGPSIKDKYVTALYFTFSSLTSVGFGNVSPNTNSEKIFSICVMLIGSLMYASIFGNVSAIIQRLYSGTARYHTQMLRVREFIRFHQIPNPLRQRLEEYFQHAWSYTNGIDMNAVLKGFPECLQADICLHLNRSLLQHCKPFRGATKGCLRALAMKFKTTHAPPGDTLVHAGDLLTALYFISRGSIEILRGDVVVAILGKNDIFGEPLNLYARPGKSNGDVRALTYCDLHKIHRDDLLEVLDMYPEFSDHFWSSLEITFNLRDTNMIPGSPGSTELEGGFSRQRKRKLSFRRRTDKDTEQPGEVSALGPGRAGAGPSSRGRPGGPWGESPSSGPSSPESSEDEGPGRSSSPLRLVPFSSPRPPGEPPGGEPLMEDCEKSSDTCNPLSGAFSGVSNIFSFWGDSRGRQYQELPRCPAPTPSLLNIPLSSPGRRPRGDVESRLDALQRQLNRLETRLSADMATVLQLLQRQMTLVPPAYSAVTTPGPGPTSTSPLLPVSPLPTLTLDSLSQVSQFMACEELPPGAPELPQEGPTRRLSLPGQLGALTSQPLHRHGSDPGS

time spent on the open arm (elevated plus maze (EPM)) [s]	Compound	current response of BLA neurons (in words) ([1]; 10 μM perfusion)	current response of BLA neurons (in words) ([1]; 30 μM perfusion)	effect on baclofen-induced current in BLA neurons (in words) ([1]; 10 min perfusion of 10 μM, 100 μM baclofen puff)	IC50 [2] [µM]
48.7 ± 8.3	Cc1cc(NC(=O)Nc2ccc(Br)s2)n(-c2ccccc2)n1 [GAT1508, 1-(5-bromothiophen-2-yl)-3-(3-methyl-1-phenyl-1H-pyrazol-5-yl)urea]	did not produce responses	produced significant outward current	significantly potentiated baclofen-induced current	–
–	Cc1cc(NC(=O)Nc2ccc(F)c(F)c2)n(-c2ccccc2)n1 [ML297, reference compound]	–	–	–	~10
